± gives the standard deviation of the averaged measurements.
system: SKBR3; assay: relative cell number vs DMSO control (72 h) (% of DMSO); higher = less growth inhibition (more cells); conditions: sgRNA knockout: sgNT, 1 nM
Protocol: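 QMAP-Seq: a pool of 5 breast cancer cell lines (ZR-75-1, SKBR3, HCC-38, MDA-MB-231, BT-20), each carrying 12 doxycycline-inducible Cas9 sgRNA perturbations (11 knockouts plus non-targeting sgNT), was treated with compounds for 72 h at four 10-fold doses (10 nM-10 uM or 1 nM-1 uM range). Barcodes were amplified and sequenced, and cell number was interpolated from 293T spike-in standard curves. The result is expressed as % of the median of DMSO wells. Two biological replicates.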

In order of rising relative cell number:
1. N#Cc1ccc(C(c2ccc(C#N)cc2)n2cncn2)cc1 [Letrozole]  87.5 ± 18
2. CN1CCN(c2ccc(C(=O)Nc3n[nH]c4ccc(Cc5cc(F)cc(F)c5)cc34)c(NC3CCOCC3)c2)CC1 [Entrectinib]  113 ± 7.7
3. CC(C)(C#N)c1cc(Cn2cncn2)cc(C(C)(C)C#N)c1 [Anastrozole]  123 ± 23

same assay, conditions: sgRNA knockout: sgNT, 10 nM

In order of falling relative cell number:
1. CN1CCN(c2ccc(C(=O)Nc3n[nH]c4ccc(Cc5cc(F)cc(F)c5)cc34)c(NC3CCOCC3)c2)CC1 [Entrectinib]  113 ± 3.7
2. O=C1NC(=O)/C(=C/c2ccc3nccc(-c4ccncc4)c3c2)S1  112 ± 35
3. Cn1nnc2c(C(N)=O)ncn2c1=O [Temozolomide]  111 ± 8.3
4. CC(C)C[C@@H](C=O)NC(=O)[C@H](CC(C)C)NC(=O)[C@H](CC(C)C)NC(=O)OCc1ccccc1 [MG132]  111 ± 7.2
5. CCCS(=O)(=O)Nc1ccc(F)c(C(=O)c2c[nH]c3ncc(Cl)cc23)c1F [PLX4720]  109 ± 24
6. CCOC(=O)c1ccc(N2NC(=O)C(=Cc3ccc([N+](=O)[O-])o3)C2=O)cc1 [PYR41]  106 ± 8.4
7. Cc1sc2c(c1C)C(c1ccc(Cl)cc1)=N[C@@H](CC(=O)OC(C)(C)C)c1nnc(C)n1-2 [(+)-JQ1]  102 ± 17
8. CC(C)(C#N)c1ccc(N2C(=O)OCc3cnc4ccc(-c5cnc6ccccc6c5)cc4c32)cc1  101 ± 19
9. COC(=O)[C@]12CCC(C)(C)C[C@H]1[C@H]1C(=O)C=C3[C@@]4(C)C=C(C#N)C(=O)C(C)(C)[C@@H]4CC[C@@]3(C)[C@]1(C)CC2 [BardoxoloneMethyl]  100.4 ± 0.77
10. COc1nc(N)nc2c1ncn2[C@@H]1O[C@H](CO)[C@@H](O)[C@@H]1O [Nelarabine]  100 ± 31
11. CN(C)C(=O)c1ccc(S(=O)(=O)c2ccc(NC(=O)[C@@](C)(O)C(F)(F)F)c(Cl)c2)cc1 [AZD7545]  97.6 ± 9.6
12. N#Cc1ccc(C(c2ccc(C#N)cc2)n2cncn2)cc1 [Letrozole]  97.5 ± 23
13. CCOC(=O)CCNc1cc(N2CCc3ccccc3CC2)nc(-c2ccccn2)n1 [GSKJ4]  94.1 ± 37
14. C[C@@H](Oc1cc(-c2cnn(C3CCNCC3)c2)cnc1N)c1c(Cl)ccc(F)c1Cl [Crizotinib]  92.7 ± 20
15. CC(C)(C#N)c1cc(Cn2cncn2)cc(C(C)(C)C#N)c1 [Anastrozole]  90.3 ± 18
16. CC[C@H](Nc1ncnc2[nH]cnc12)c1nc2cccc(F)c2c(=O)n1-c1ccccc1 [CAL101]  77.4 ± 19
17. COc1cc(-n2c(=S)[nH]c3ccccc3c2=O)c(Cl)cc1Cl [Mdivi1]  76 ± 18
18. CC(C)(C)c1cnc(CSc2cnc(NC(=O)C3CCNCC3)s2)o1 [SNS032]  72.7 ± 6
19. CC(C)n1c(/C=C/C(O)CC(O)CC(=O)O)c(-c2ccc(F)cc2)c2ccccc21 (stereo not given) [Fluvastatin]  64.9 ± 4
20. Nc1ccn([C@@H]2O[C@H](CO)[C@@H](O)C2(F)F)c(=O)n1 [Gemcitabine]  26.2 ± 2.4

same assay, conditions: sgRNA knockout: sgNT, 100 nM

In order of rising relative cell number:
1. Nc1ccn([C@@H]2O[C@H](CO)[C@@H](O)C2(F)F)c(=O)n1 [Gemcitabine]  7.58 ± 1.7
2. COC(=O)[C@]12CCC(C)(C)C[C@H]1[C@H]1C(=O)C=C3[C@@]4(C)C=C(C#N)C(=O)C(C)(C)[C@@H]4CC[C@@]3(C)[C@]1(C)CC2 [BardoxoloneMethyl]  66.6 ± 13
3. CN1CCN(c2ccc(C(=O)Nc3n[nH]c4ccc(Cc5cc(F)cc(F)c5)cc34)c(NC3CCOCC3)c2)CC1 [Entrectinib]  82.9 ± 36
4. CCOC(=O)c1ccc(N2NC(=O)C(=Cc3ccc([N+](=O)[O-])o3)C2=O)cc1 [PYR41]  83.5 ± 17
5. Cn1nnc2c(C(N)=O)ncn2c1=O [Temozolomide]  84.7 ± 20
6. COc1nc(N)nc2c1ncn2[C@@H]1O[C@H](CO)[C@@H](O)[C@@H]1O [Nelarabine]  85.8 ± 2.9
7. CC(C)n1c(/C=C/C(O)CC(O)CC(=O)O)c(-c2ccc(F)cc2)c2ccccc21 (stereo not given) [Fluvastatin]  87.3 ± 1.6
8. CC(C)(C)c1cnc(CSc2cnc(NC(=O)C3CCNCC3)s2)o1 [SNS032]  89.5 ± 12
9. CC[C@H](Nc1ncnc2[nH]cnc12)c1nc2cccc(F)c2c(=O)n1-c1ccccc1 [CAL101]  91.3 ± 18
10. C[C@@H](Oc1cc(-c2cnn(C3CCNCC3)c2)cnc1N)c1c(Cl)ccc(F)c1Cl [Crizotinib]  98.4 ± 12
11. CC(C)C[C@@H](C=O)NC(=O)[C@H](CC(C)C)NC(=O)[C@H](CC(C)C)NC(=O)OCc1ccccc1 [MG132]  99.3 ± 22
12. CC(C)(C#N)c1ccc(N2C(=O)OCc3cnc4ccc(-c5cnc6ccccc6c5)cc4c32)cc1  100 ± 3
13. CN(C)C(=O)c1ccc(S(=O)(=O)c2ccc(NC(=O)[C@@](C)(O)C(F)(F)F)c(Cl)c2)cc1 [AZD7545]  103 ± 18
14. CCOC(=O)CCNc1cc(N2CCc3ccccc3CC2)nc(-c2ccccn2)n1 [GSKJ4]  104 ± 3.1
15. COc1cc(-n2c(=S)[nH]c3ccccc3c2=O)c(Cl)cc1Cl [Mdivi1]  104 ± 6.3
16. CCCS(=O)(=O)Nc1ccc(F)c(C(=O)c2c[nH]c3ncc(Cl)cc23)c1F [PLX4720]  105 ± 22
17. N#Cc1ccc(C(c2ccc(C#N)cc2)n2cncn2)cc1 [Letrozole]  110 ± 22
18. CC(C)(C#N)c1cc(Cn2cncn2)cc(C(C)(C)C#N)c1 [Anastrozole]  118 ± 17
19. Cc1sc2c(c1C)C(c1ccc(Cl)cc1)=N[C@@H](CC(=O)OC(C)(C)C)c1nnc(C)n1-2 [(+)-JQ1]  119 ± 21
20. O=C1NC(=O)/C(=C/c2ccc3nccc(-c4ccncc4)c3c2)S1  123 ± 53

same assay, conditions: sgRNA knockout: sgNT, 1000 nM

In order of falling relative cell number:
1. N#Cc1ccc(C(c2ccc(C#N)cc2)n2cncn2)cc1 [Letrozole]  121.06 ± 0.081
2. CC(C)(C#N)c1cc(Cn2cncn2)cc(C(C)(C)C#N)c1 [Anastrozole]  103 ± 13
3. CCOC(=O)CCNc1cc(N2CCc3ccccc3CC2)nc(-c2ccccn2)n1 [GSKJ4]  101 ± 9.6
4. Cc1sc2c(c1C)C(c1ccc(Cl)cc1)=N[C@@H](CC(=O)OC(C)(C)C)c1nnc(C)n1-2 [(+)-JQ1]  91.5 ± 2.7
5. O=C1NC(=O)/C(=C/c2ccc3nccc(-c4ccncc4)c3c2)S1  90.9 ± 9.8
6. CC(C)n1c(/C=C/C(O)CC(O)CC(=O)O)c(-c2ccc(F)cc2)c2ccccc21 (stereo not given) [Fluvastatin]  82.5 ± 41
7. COC(=O)[C@]12CCC(C)(C)C[C@H]1[C@H]1C(=O)C=C3[C@@]4(C)C=C(C#N)C(=O)C(C)(C)[C@@H]4CC[C@@]3(C)[C@]1(C)CC2 [BardoxoloneMethyl]  7.42 ± 0.66

— the supplement of paper PMC7661543
